Data reported in the NIST ThermoML archive (doi:10.1021/acs.jced.5b00288).
“And” between values parts separate entries of the source, which are not always exact repeats. Identical values can stand only once. ± gives the expanded uncertainty stated by the source.

Assay: excess molar enthalpy (molar enthalpy of mixing); xn = mol fraction of the nth substance listed
Settings: 1060 K, 101 kPa, Liquid, Calvet calorimetry

[I][La]([I])[I] [lanthanum triiodide] + [I-].[Na+]
Settings | excess molar enthalpy [kcal/mol]
x1 = 0.0482 | -0.189 ± 0.0311
x1 = 0.0991 | -0.415 ± 0.0669
x1 = 0.1503 | -0.462 ± 0.0741
x1 = 0.2 | -0.678 ± 0.108
x1 = 0.2477 | -0.549 ± 0.0884
x1 = 0.296 | -0.821 ± 0.131
x1 = 0.3412 | -0.655 ± 0.105
x1 = 0.3968 | -0.69 ± 0.11
x1 = 0.3984 | -0.763 ± 0.122
x1 = 0.4454 | -0.683 ± 0.11
x1 = 0.4931 | -0.497 ± 0.0789
x1 = 0.4966 | -0.576 ± 0.0932
x1 = 0.5392 | -0.605 ± 0.098

[I][La]([I])[I] [lanthanum triiodide] + [I-].[K+]
Settings | excess molar enthalpy
x1 = 0.048 | -0.464 ± 0.0741 kcal/mol
x1 = 0.1 | -0.973 ± 0.155 kcal/mol
x1 = 0.152 | -1.53 ± 0.239 kcal/mol
x1 = 0.199 | -1.64 kcal/mol and -1.93 kcal/mol
x1 = 0.246 | -2.13 ± 0.335 kcal/mol
x1 = 0.25 | -1.76 ± 0.287 kcal/mol
x1 = 0.304 | -1.79 ± 0.287 kcal/mol
x1 = 0.348 | -1.89 ± 0.311 kcal/mol
x1 = 0.354 | -2.3 ± 0.359 kcal/mol
x1 = 0.398 | -1.93 ± 0.311 kcal/mol
